Results: patent US20090134028A1, “Method of Estimating Effect of Test Chemical on Living Organisms” (Chemicals Evaluation and Research Institute, priority 2005, published 2009)
Read-outs that look alike come from different tables or passages of the source.

How the values were obtained:
[1] = cited from earlier work
[2] = Prediction of liver cell hypertrophy using SVM from post-translational modification data; parameters: species or system rat
[3] = SVM prediction of liver cell hypertrophy, training set, top-ranked 20 sets of post-translational modification data
[4] = known carcinogenicity of chemical, Tables 1 to 3
[5] = known carcinogenicity of chemical, Tables 8 to 11

Structure (SMILES)	Carcinogenicity ([1]; in vivo)	Finding of hepatocyte hypertrpy (liver cell; rat, in vivo)	pathology of liver cell hypertrophy in the liver (liver cell; rat, in vivo)	further results
CCSCCC(N)C(=O)O (racemic) [D,L-ethionin]	+			
CC(C)[C@@H]1CC[C@@H](C)C[C@H]1O (racemic) [DL-menthol]	−	+	pathology of liver cell hypertrophy was seen	Prediction result [2]: +1 CORRECT
Clc1ccc(Cl)cc1 [1,4-Dichlorobenzene]	+	+	pathology of liver cell hypertrophy was seen	Prediction result [2]: +1 CORRECT
C1COCCO1 [1,4-Dioxane]		−	no pathology of liver cell hypertrophy was seen	Prediction result [2]: −1 CORRECT
CC(O)CCl (centres unmarked) [1-Chloro-2-propanol]	−			
O=[N+]([O-])c1cccc2ccccc12 [1-Nitronaphthalene]	−			
Cc1ccc(N)cc1N [2,4-Diaminotoluene]	+	−	no pathology of liver cell hypertrophy was seen	Prediction result [2]: −1 CORRECT
Cc1cc(N)ccc1N.O=S(=O)(O)O [2,5-Toluenediamine sulfate]	−			
Cc1c(N)cccc1N [2,6-Diaminotoluene]		−	no pathology of liver cell hypertrophy was seen	Prediction result [2, 3]: −1 CORRECT
Cl.ClCc1ccccn1 [2-(Chloromethyl)pyridine hydrochloride]		−	no pathology of liver cell hypertrophy was seen	Carcinogenicity [1, 4]: −; Carcinogenicity [1, 5]: −; Prediction result [2]: −1 CORRECT
Cn1c(N)nc2ncc(-c3ccccc3)cc21 [2-Amino-1-methyl-6-phenylimidazo[4,5-b]-pyridine]	+			
Cc1cnc2ccc3c(nc(N)n3C)c2n1 [2-Amino-3,8-dimethylimidazo[4,5-f]-quinoxaline]	+			
Nc1ccc(N)c(Cl)c1.O=S(=O)(O)O [2-Chloro-p-phenylenediamine sulfate]	−			
CC(C)[N+](=O)[O-] [2-Nitropropane]		−	no pathology of liver cell hypertrophy was seen	Prediction result [2]: −1 CORRECT
Cc1ccc(N)cc1Cl [3-Chloro-p-toluidine]	−			
Cc1ccc2cc3c(ccc4ccccc43)c3c2c1CC3 [3-Methylcholantrene]	+			
CC(=O)Nc1ccc(C(=O)CCl)cc1 [4-(Chloroacetyl)acetanilide]	−			
CN(C)c1ccc(N=Nc2ccccc2)cc1 [4-Dimethylaminoaxobenzene]	+			
Nc1ccc([N+](=O)[O-])cc1N [4-Nitro-o-phenylenediamine]	−	−	no pathology of liver cell hypertrophy was seen	Prediction result [2]: −1 CORRECT
Nc1cc([N+](=O)[O-])ccc1C(=O)O [4-Nitroanthranylic acid]	−			

Structure (SMILES)	Carcinogenicity ([1]; in vivo)	Finding of hepatocyte hypertrpy (liver cell; rat, in vivo)	pathology of liver cell hypertrophy in the liver (liver cell; rat, in vivo)	further results
Cc1c2ccccc2c(C)c2c1ccc1ccccc12 [7,12-Dimethylbenzanthracene]	+			
Oc1cccc2cccnc12 [8-Hydrxyquinoline]	−	−	no pathology of liver cell hypertrophy was seen	Prediction result [2]: −1 CORRECT
CC(N)=O [Acetamide]	+			
ClC1=C(Cl)C2(Cl)C3C4C=CC(C4)C3C1(Cl)C2(Cl)Cl (centres unmarked) [Aldrin]	+	−	no pathology of liver cell hypertrophy was seen	Prediction result [2]: −1 CORRECT
CC(=O)Oc1ccccc1C(=O)O [Aspirin]				Carcinogenicity [1, 4]: −; Carcinogenicity [1, 5]: −
c1ccc2cc3c(ccc4ccccc43)cc2c1 [Benz(a)anthracene]	+			
O=C(c1ccccc1)C(O)c1ccccc1 (centres unmarked) [Benzoin]	−			
COc1ccc(O)c(C(C)(C)C)c1 [Butylated hydroxyanisole]	+	−	no pathology of liver cell hypertrophy was seen	Prediction result [2]: −1 CORRECT
O=C1CCCCCN1 [Caprolactam]				Carcinogenicity [1, 4]: −; Carcinogenicity [1, 5]: −
ClC(Cl)(Cl)Cl [Carbon tetrachloride]	+	−	no pathology of liver cell hypertrophy was seen	Prediction result [2]: −1 CORRECT
O=C(O)C1C(C(=O)O)C2(Cl)C(Cl)=C(Cl)C1(Cl)C2(Cl)Cl (centres unmarked) [Chlorendic acid]	+			
ClC(Cl)Cl [Chloroform]	+			
CCOC(=O)C(C)(C)Oc1ccc(Cl)cc1 [Clofibrate]		+	pathology of liver cell hypertrophy was seen	Carcinogenicity [1, 4]: +; Carcinogenicity [1, 5]: +
OC[C@@H](O)[C@@H](O)[C@H](O)[C@H](O)CO [D-mannitol]		−	no pathology of liver cell hypertrophy was seen	Carcinogenicity [1, 4]: −; Carcinogenicity [1, 5]: −; Prediction result [2, 3]: −1 CORRECT
CCCCC(CC)COC(=O)CCCCC(=O)OCC(CC)CCCC (centres unmarked) [Di(2-ethylhexyl)adipate]		−	no pathology of liver cell hypertrophy was seen	Prediction result [2]: 1
CCCCC(CC)COC(=O)c1ccccc1C(=O)OCC(CC)CCCC (centres unmarked) [Di(2-ethylhexyl)phthalate]	+	+	pathology of liver cell hypertrophy was seen	Prediction result [2, 3]: −1 (−1 and 1 indicates the incorrectly predicted compounds)
CCN(CC)N=O [Diethylnitrosamine]	+	−	no pathology of liver cell hypertrophy was seen	Prediction result [2]: −1 CORRECT
CC/C(=C(/CC)c1ccc(O)cc1)c1ccc(O)cc1 [Diethylstilbestrol]				Carcinogenicity [1, 4]: +; Carcinogenicity [1, 5]: +
C#C[C@]1(O)CC[C@H]2[C@@H]3CCc4cc(O)ccc4[C@H]3CC[C@@]21C [Ethinylestradiol]		−	no pathology of liver cell hypertrophy was seen	Carcinogenicity [1, 4]: +; Carcinogenicity [1, 5]: +
c1ccoc1 [Furan]	+	+	pathology of liver cell hypertrophy was seen	Prediction result [2]: −1

Structure (SMILES)	Carcinogenicity ([1]; in vivo)	Finding of hepatocyte hypertrpy (liver cell; rat, in vivo)	pathology of liver cell hypertrophy in the liver (liver cell; rat, in vivo)	further results
O=CCCCC=O [Glutaraldehyde]				Carcinogenicity [1, 4]: −; Carcinogenicity [1, 5]: −
Clc1c(Cl)c(Cl)c(Cl)c(Cl)c1Cl [Hexachlorobenzene]		+		
IC(I)I [Iodoform]	−	+		Prediction result [2, 3]: +1 CORRECT
O=C1O[C@H]([C@@H](O)CO)C(O)=C1O [L-ascorbic acid]		−		Prediction result [2, 3]: −1 CORRECT
COC(N)=O [Methyl carbamate]				Prediction result [2, 3]: −1 CORRECT; pathology of liver cell hypertrophy in the liver (liver cell; after 28 days repeated administration): no pathology of liver cell hypertrophy was seen; Finding of hepatocyte hypertrpy (liver cell; rat liver after 28 days repeated administration): −
CCN(N=O)C(N)=O [N-ethy-N-nitrosourea]	+			
CN(C)N=O [N-nitrsodimethylamine]	+			
ClC(Cl)C(Cl)(Cl)Cl [Pentachloroethane]	+			
CCC1(c2ccccc2)C(=O)NC(=O)NC1=O [Phenobarbital]		+	pathology of liver cell hypertrophy was seen	
O=C1NC(=O)C(c2ccccc2)(c2ccccc2)N1 [Phenytoin sodium]				Carcinogenicity [1, 4]: +; Carcinogenicity [1, 5]: +
NC(=O)c1ccccc1C(N)=O [Phthalamide]				Carcinogenicity [1, 4]: −; Carcinogenicity [1, 5]: −
c1ccc2ncccc2c1 [Quinoline]	+	−	no pathology of liver cell hypertrophy was seen	Prediction result [2, 3]: −1 CORRECT
C=CCc1ccc2c(c1)OCO2 [Safrole]	+	+	pathology of liver cell hypertrophy was seen	Prediction result [2]: +1 CORRECT
ClC(Cl)=C(Cl)Cl [Tetrachloroethylene]	+			
CC(=N)S [Thioacetamide]	+			
O=C(O)C(Cl)(Cl)Cl [Trichloroacetic acid]	+			
ClC=C(Cl)Cl [Trichloroethylene]	+	−	no pathology of liver cell hypertrophy was seen	Prediction result [2]: −1 CORRECT
CCOC(N)=O [Urethane]				Carcinogenicity [1, 4]: +; Carcinogenicity [1, 5]: +
Cl.Cl.Nc1ccc(N)cc1 [p-Phenylenediamine dihydrochloride]	−			
Cl[C@H]1[C@H](Cl)[C@H](Cl)[C@@H](Cl)[C@H](Cl)[C@H]1Cl [α-Hexachlorocyclohexane]	+	+	pathology of liver cell hypertrophy was seen	Prediction result [2]: +1 CORRECT
